Test results published in patent publication US20250177481A1, “SCO-spondin-derived polypeptides for enhancing synaptic transmission” (AXOLTIS PHARMA, priority 2021, published 2025).
Where “and” joins values, the source holds several entries; their conditions need not be identical. Equal values may be shown once. Positions of bridges follow the written chain, without caps; N, C: chain ends. No end group written: not given here.

How the values were obtained:
[1] = system: basal excitatory synaptic transmission at CA3-CA1 synapses; experiment: fEPSP input-output (I/O) recordings in CA1 of mouse hippocampal slices; assay type: cell-based, C57Bl6/J mice; conditions: NX218 250 μg/mL; for Normalized fEPSP slope: normalized to max slope in vehicle, mean of 10 slices
Procedure: Comparison of postsynaptic responses in control versus NX218 peptide conditions were assessed.
Five (C57Bl6/J) male mice 4-5 weeks-old were obtained from Charles River, France and housed in an animal facility. Animal care was compliant with national and local Ethics committee recommendations. Ten Sagittal hippocampal brain slices (2 per mouse) were obtained using standard brain slicing methods (Knobloch et al. 2007). Mice were anesthetized with 5% isoflurane and then decapitated. Brain was dissected out of the cranium and immediately immersed in ice-cold freshly prepared artificial cerebrospinal fluid (aCSF) containing: 124 mM NaCl, 3.75 mM KCl, 2 mM MgSO4, 2 mM CaCl2, 26.5 mM NaHCO3, 1.25 mM NaH2PO4, 10 mM glucose, continuously oxygenated (95% O2, 5% CO2) (pH=7.4) for a total duration of 3-4 minutes. Acute slices (350 μm thick) were prepared using a vibratome (VT 1000S; Leica Microsystems, Bannockburn, IL). Sections were incubated in standard aCSF (124 mM NaCl, 3.75 mM KCl, 2 mM MgSO4, 2 mM CaCl2, 26.5 mM NaHCO3, 1.25 mM NaH2PO4, 10 mM glucose) at room temperature for at least 1 h before recordings.
For electrophysiological recordings, a single slice was placed in the recording chamber (room temperature), submerged and continuously superfused with gassed aCSF (95% O2, 5% CO2; pH=7.4) at a constant rate (2 mL min^−1) for the reminder of the experiment. Extracellular field excitatory postsynaptic potentials (fEPSPs) were recorded in the CA1 stratum radiatum using a glass micropipette filled with aCSF. fEPSPs were evoked by the electrical stimulation of Schaffer collateral-commissural pathway at 0.1 Hz (i.e., a single pulse every 10 s) with a glass stimulating electrode (borosilicate capillary glass with filament, standard wall; OD: 1.5 mm; ID: 0.86 mm; Length: 75 mm; ref: W3 30-0060 from Harvard Apparatus) placed in the stratum radiatum.
After 10 minutes of stabilization, basal synaptic transmission was assessed. […] This procedure was repeated 3 times, 30 seconds interval for each session. A single session final I/O curve was obtained by plotting the averaged rationalised slopes of fEPSPs as a function of the stimulation intensity.
The signal was amplified with an Axopatch 200B amplifier (Molecular Devices, Union City, CA) digitized by a Digidata 1322A interface (Axon Instruments, Molecular Devices, US) and sampled at 10 kHz. Recordings were acquired using Clampex (Molecular Devices) and analyzed with Clampfit (Molecular Devices).
All data was normalized from the fEPSP maximum slope recorded in control condition (during vehicle bath application). […] Potential outliers were identified for exclusion using the following criteria: >3 standard deviations away from the group mean in either direction.

[2] = system: Schaffer collateral-CA1 synaptic transmission in mouse hippocampal slices after OGD; experiment: fEPSP recovery after OGD in hippocampal slices, treatment from the end of OGD or during recovery plateau (Example 8); assay type: cell-based, C57Bl6/J mice; conditions: for averaged normalized f-EPSP slope: NX218 250 μg/mL from the end of OGD, n=10 slices
Procedure: Two extra slices were also be recorded to evaluate a possible curative capacity of NX218 against hypoxia.
Animals: see Example 7. In total, 10 mice were used in this study. An additional mouse was used to obtain two extra slices for preliminary recordings (“test slices)”.
Mice brain slice preparation: see Example 7
Conditions of Example 7 are used, except:
Measurements of evoked field excitatory postsynaptic potential (fEPSP) recovery after OGD were continued for 120 min from TO (OGD initiation). Two “test slices” were also done according to the experimental design described above.
Oxygen-glucose deprivation: see Example 7. In this study, the mean OGD duration was 10.6±1.0 min. Data processing and statistical analysis: see Example 7.

“W-S-G-W-S-S-C-S-R-S-C-G [NX218] (WSGWSSCSRSCG; disulfide 7-11 (inferred))” was tested, and the “change of basal excitatory synaptic transmission vs control condition (whole I/O curve)” value [1] was “statistical increase”, the “Normalized fEPSP slope” value ([1]; stimulation intensity 0 µA) was 0.09% and the “Normalized fEPSP slope” value ([1]; stimulation intensity 50 µA) was 30.78%. The “Normalized fEPSP slope” value ([1]; stimulation intensity 100 µA) was 71.26%, the “Normalized fEPSP slope” value ([1]; stimulation intensity 150 µA) was 110.51% and the “Normalized fEPSP slope” value ([1]; stimulation intensity 200 µA) was 134.44%. For the same substance, the “Normalized fEPSP slope” value ([1]; stimulation intensity 250 µA) was 149.89%, the “Normalized fEPSP slope” value ([1]; stimulation intensity 300 µA) was 156.80% and the “Normalized fEPSP slope” value ([1]; stimulation intensity 350 µA) was 160.72%. For the same substance, the “Normalized fEPSP slope” value ([1]; stimulation intensity 400 µA) was 164.01%, the “Normalized fEPSP slope” value ([1]; stimulation intensity 450 µA) was 164.39% and the “Normalized fEPSP slope” value ([1]; stimulation intensity 500 µA) was 166.29%. The “Normalized fEPSP slope” value ([1]; stimulation intensity 550 µA) was 167.00%, the “Normalized fEPSP slope” value ([1]; stimulation intensity 600 µA) was 167.37% and the “Normalized fEPSP slope” value ([1]; stimulation intensity 650 µA) was 168.66%. The “Normalized fEPSP slope” value ([1]; stimulation intensity 700 µA) was 169.65%, the “Normalized fEPSP slope” value ([1]; stimulation intensity 750 µA) was 169.89% and the “Normalized fEPSP slope” value ([1]; stimulation intensity 800 µA) was 170.46%. The “Normalized fEPSP slope” value ([1]; stimulation intensity 850 µA) was 171.65%, the “averaged normalized f-EPSP slope” value ([2]; 0-30 min after start of OGD, vehicle 28.497) was 25.758 % of baseline and the “averaged normalized f-EPSP slope” value ([2]; 30-60 min after start of OGD, vehicle 53.456) was 52.556 % of baseline. For the same substance, the “averaged normalized f-EPSP slope” value ([2]; 60-90 min after start of OGD, vehicle 68.774) was 74.616 % of baseline, the “averaged normalized f-EPSP slope” value ([2]; 90-120 min after start of OGD, vehicle 77.110) was 88.0±1.9 % of baseline and 88.046 % of baseline and the “shape of the f-EPSP recovery phase following OGD (curative effect)” value ([2]; NX218 250 μg/mL applied during recovery plateau, T=60 min or T=70 min after OGD initiation, preliminary, n=1 per timepoint) was “rising further toward baseline”. For the same substance, the “averaged normalized f-EPSP slope” value ([2]; last 10 min (of 120 min) after start of OGD, vehicle 79.319) was 90.3±2.7 % of baseline and 90.340 % of baseline.
